Test results from patent US6737383B1, “Herbicidal oxadiazolidines” (priority 1999, dated 2004).

What was measured:
[1] = system: surinam grass; experiment: Test B pre/postemergence surinam grass; assay type: in vivo, Brachiaria decumbens; details: for B. signalgrass plant response rating: scale of 0 to 10 where 0 is no effect and 10 is complete control
In short: (§1)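 Herbicidal effect was estimated by eye on a ten-point control scale after plants spent twelve to sixteen days in a greenhouse following soil or foliar treatment. Foliar sprays targeted plants at one to four leaves; all doses were formulated in a non-phytotoxic solvent with surfactant.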

[2] = system: cocklebur; experiment: Test B pre/postemergence cocklebur; assay type: in vivo, Xanthium strumarium; details: for Cocklebur plant response rating: scale of 0 to 10 where 0 is no effect and 10 is complete control
In short: as §1

[3] = system: corn; experiment: Test B pre/postemergence corn; assay type: in vivo, Zea mays; details: for Corn plant response rating: scale of 0 to 10 where 0 is no effect and 10 is complete control
In short: as §1

[4] = system: crabgrass; experiment: Test B pre/postemergence crabgrass; assay type: in vivo, Digitaria sanguinalis; details: for Crabgrass plant response rating: scale of 0 to 10 where 0 is no effect and 10 is complete control
In short: as §1

[5] = system: giant foxtail; experiment: Test B pre/postemergence giant foxtail; assay type: in vivo, Setaria faberii; details: for Giant foxtail plant response rating: scale of 0 to 10 where 0 is no effect and 10 is complete control
In short: as §1

[6] = system: morningglory; experiment: Test B pre/postemergence morningglory; assay type: in vivo, Ipomoea hederacea; details: for Morningglory plant response rating: scale of 0 to 10 where 0 is no effect and 10 is complete control
In short: as §1

[7] = system: pigweed; experiment: Test B pre/postemergence pigweed; assay type: in vivo, Amaranthus retroflexus; details: for Redroot pigweed plant response rating: scale of 0 to 10 where 0 is no effect and 10 is complete control
In short: as §1

[8] = system: rape; experiment: Test B pre/postemergence rape; assay type: in vivo, Brassica napus; details: for Rape plant response rating: scale of 0 to 10 where 0 is no effect and 10 is complete control
In short: as §1

[9] = system: soybean; experiment: Test B pre/postemergence soybean; assay type: in vivo, Glycine max; details: for Soybean plant response rating: scale of 0 to 10 where 0 is no effect and 10 is complete control
In short: as §1

[10] = system: sugar beet; experiment: Test B pre/postemergence sugar beet; assay type: in vivo, Beta vulgaris; details: for Sugarbeets plant response rating: scale of 0 to 10 where 0 is no effect and 10 is complete control
In short: as §1

[11] = system: wild oat; experiment: Test B pre/postemergence wild oat; assay type: in vivo, Avena fatua; details: for Wild oats plant response rating: scale of 0 to 10 where 0 is no effect and 10 is complete control
In short: as §1

[12] = system: purple nutsedge; experiment: Test B pre/postemergence purple nutsedge; assay type: in vivo, Cyperus rotundus; details: for Nutsedge plant response rating: scale of 0 to 10 where 0 is no effect and 10 is complete control
In short: as §1

[13] = system: rice; experiment: Test B flood test rice; assay type: in vivo, Oryza sativa
In short: (§2)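 Plants were grown to the 2-leaf stage before treatment with test chemical, then held in a greenhouse for twelve to sixteen days. Injury was visually rated against untreated controls on a 0–10 scale, where 0 is no effect and 10 is complete control.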

[14] = system: smallflower flatsedge; experiment: Test B flood test smallflower flatsedge; assay type: in vivo, Cyperus difformis
In short: as §2

[15] = system: duck salad; experiment: Test B flood test duck salad; assay type: in vivo, Heteranthera limosa
In short: as §2

[16] = system: bamyardgrass; experiment: Test B flood test barnyardgrass; assay type: in vivo, Echinochloa crus-galli
In short: as §2

[17] = Postemergence, Rate 125 g/ha, scale 0 to 10, 0 is no effect, 10 is complete control
[18] = Postemergence, Rate 250 g/ha, scale 0 to 10, 0 is no effect, 10 is complete control
[19] = Preemergence, Rate 62 g/ha, scale 0 to 10 (0 no effect, 10 complete control)
[20] = Rate 500 g/ha, Postemergence, scale 0 to 10, 0 no effect, 10 complete control
[21] = Postemergence (flood test), Rate 125 g/ha, scale 0 to 10, 0 is no effect, 10 is complete control
[22] = Rate 62 g/ha, Postemergence (flood test species), scale of 0 to 10 where 0 is no effect and 10 is complete control
[23] = Rate 62 g/ha, flood test species, Pre-emergence, visual evaluation after twelve to sixteen days
[24] = Rate 125 g/ha, under heading Pre-emergence, flood test species, visual evaluation after twelve to sixteen days
[25] = Rate 250 g/ha, Pre-emergence, flood-test species, scale 0 to 10, 0 is no effect, 10 is complete control
[26] = Rate 500 g/ha, listed under Postemergence (flood test species), scale 0 to 10, 0 no effect, 10 complete control
[27] = Rate 500 g/ha, Pre-emergence, flood test species, scale 0 to 10 (0 no effect, 10 complete control)
[28] = flood test species, listed under Postemergence, Rate 250 g/ha, scale 0 to 10, 0 is no effect, 10 is complete control

SMILES: CC1CC1n1c(=O)on(C(=O)N(c2ccc(F)cc2F)C(C)C)c1=O (stereo not shown) [Compound 372]
- Plant response rating, B. signalgrass [1, 17]: 2
- Plant response rating, B. signalgrass [1, 18]: 4
- Plant response rating, B. signalgrass [1, 19]: 0
- B. signalgrass plant response rating (0 to 10 scale, 0 is no effect, 10 is complete control) ([1]; Preemergence, Rate 125 g/ha): 4
- B. signalgrass plant response rating ([1]; Preemergence, Rate 250 g/ha): 6
- B. signalgrass plant response rating ([1]; Preemergence, Rate 500 g/ha): 8
- B. signalgrass plant response rating ([1]; Rate 62 g/ha, Postemergence): 0
- Plant response rating, B. signalgrass [1, 20]: 7
- Plant response rating, Cocklebur [2, 17]: 0
- Plant response rating, Cocklebur [2, 18]: 0
- Plant response rating, Cocklebur [2, 19]: 0
- Cocklebur plant response rating (0 to 10 scale) ([2]; Preemergence, Rate 125 g/ha): 0
- Cocklebur plant response rating ([2]; Preemergence, Rate 250 g/ha): 2
- Cocklebur plant response rating ([2]; Preemergence, Rate 500 g/ha): 2
- Cocklebur plant response rating ([2]; Rate 62 g/ha, Postemergence): 0
- Plant response rating, Cocklebur [2, 20]: 3
- Plant response rating, Corn [3, 17]: 0
- Plant response rating, Corn [3, 18]: 0
- Plant response rating, Corn [3, 19]: 2
- Corn plant response rating (0 to 10 scale) ([3]; Preemergence, Rate 125 g/ha): 2
- Corn plant response rating ([3]; Preemergence, Rate 250 g/ha): 9
- Corn plant response rating ([3]; Preemergence, Rate 500 g/ha): 9
- Corn plant response rating ([3]; Rate 62 g/ha, Postemergence): 0
- Plant response rating, Corn [3, 20]: 3
- Plant response rating, Crabgrass [4, 17]: 2
- Plant response rating, Crabgrass [4, 18]: 8
- Plant response rating, Crabgrass [4, 19]: 8
- Crabgrass plant response rating (0 to 10 scale) ([4]; Preemergence, Rate 125 g/ha): 9
- Crabgrass plant response rating ([4]; Preemergence, Rate 250 g/ha): 10
- Crabgrass plant response rating ([4]; Preemergence, Rate 500 g/ha): 10
- Crabgrass plant response rating ([4]; Rate 62 g/ha, Postemergence): 2
- Plant response rating, Crabgrass [4, 20]: 9
- Plant response rating, Giant foxtail [5, 17]: 9
- Plant response rating, Giant foxtail [5, 18]: 9
- Plant response rating, Giant foxtail [5, 19]: 10
- Giant foxtail plant response rating (0 to 10 scale) ([5]; Preemergence, Rate 125 g/ha): 10
- Giant foxtail plant response rating ([5]; Preemergence, Rate 250 g/ha): 10
- Giant foxtail plant response rating ([5]; Preemergence, Rate 500 g/ha): 10
- Giant foxtail plant response rating ([5]; Rate 62 g/ha, Postemergence): 4
- Plant response rating, Giant foxtail [5, 20]: 9
- Plant response rating, Morningglory [6, 17]: 7
- Plant response rating, Morningglory [6, 18]: 7
- Plant response rating, Morningglory [6, 19]: 0
- Morningglory plant response rating (0 to 10 scale) ([6]; Preemergence, Rate 125 g/ha): 0
- Morningglory plant response rating ([6]; Preemergence, Rate 250 g/ha): 2
- Morningglory plant response rating ([6]; Preemergence, Rate 500 g/ha): 3
- Morningglory plant response rating ([6]; Rate 62 g/ha, Postemergence): 5
- Plant response rating, Morningglory [6, 20]: 10
- Plant response rating, Redroot pigweed [7, 17]: 3
- Plant response rating, Redroot pigweed [7, 18]: 6
- Plant response rating, Redroot pigweed [7, 19]: 6
- Redroot pigweed plant response rating (0 to 10 scale) ([7]; Preemergence, Rate 125 g/ha): 10
- Redroot pigweed plant response rating ([7]; Preemergence, Rate 250 g/ha): 10
- Redroot pigweed plant response rating ([7]; Preemergence, Rate 500 g/ha): 10
- Redroot pigweed plant response rating ([7]; Rate 62 g/ha, Postemergence): 2
- Plant response rating, Redroot pigweed [7, 20]: 9
- Plant response rating, Rape [8, 18]: 3
- Plant response rating, Rape [8, 19]: 5
- Rape plant response rating (0 to 10 scale) ([8]; Preemergence, Rate 125 g/ha): 5
- Rape plant response rating ([8]; Preemergence, Rate 250 g/ha): 10
- Rape plant response rating ([8]; Preemergence, Rate 500 g/ha): 10
- Rape plant response rating ([8]; Rate 62 g/ha, Postemergence): 2
- Plant response rating, Rape [8, 20]: 5
- Plant response rating, Soybean [9, 17]: 1
- Plant response rating, Soybean [9, 18]: 2
- Plant response rating, Soybean [9, 19]: 0
- Soybean plant response rating (0 to 10 scale) ([9]; Preemergence, Rate 125 g/ha): 0
- Soybean plant response rating ([9]; Preemergence, Rate 250 g/ha): 0
- Soybean plant response rating ([9]; Preemergence, Rate 500 g/ha): 2
- Soybean plant response rating ([9]; Rate 62 g/ha, Postemergence): 1
- Plant response rating, Soybean [9, 20]: 3
- Plant response rating, Sugarbeets [10, 17]: 2
- Plant response rating, Sugarbeets [10, 18]: 2
- Plant response rating, Sugarbeets [10, 19]: 2
- Sugarbeets plant response rating (0 to 10 scale) ([10]; Preemergence, Rate 125 g/ha): 4
- Sugarbeets plant response rating ([10]; Preemergence, Rate 250 g/ha): 10
- Sugarbeets plant response rating ([10]; Preemergence, Rate 500 g/ha): 10
- Sugarbeets plant response rating ([10]; Rate 62 g/ha, Postemergence): 0
- Plant response rating, Sugarbeets [10, 20]: 8
- Plant response rating, Wild oats [11, 17]: 4
- Plant response rating, Wild oats [11, 18]: 5
- Plant response rating, Wild oats [11, 19]: 4
- Wild oats plant response rating (0 to 10 scale) ([11]; Preemergence, Rate 125 g/ha): 7
- Wild oats plant response rating ([11]; Preemergence, Rate 250 g/ha): 9
- Wild oats plant response rating ([11]; Preemergence, Rate 500 g/ha): 10
- Wild oats plant response rating ([11]; Rate 62 g/ha, Postemergence): 2
- Plant response rating, Wild oats [11, 20]: 8
- Plant response rating, Nutsedge [12, 17]: 0
- Plant response rating, Nutsedge [12, 18]: 0
- Plant response rating, Nutsedge [12, 19]: 0
- Nutsedge plant response rating (0 to 10 scale) ([12]; Preemergence, Rate 125 g/ha): 0
- Nutsedge plant response rating ([12]; Preemergence, Rate 250 g/ha): 0
- Nutsedge plant response rating ([12]; Preemergence, Rate 500 g/ha): 10
- Nutsedge plant response rating ([12]; Rate 62 g/ha, Postemergence): 0
- Plant response rating, Nutsedge [12, 20]: 0
- Plant response rating, Rice [13, 21]: 0
- Rice plant response rating [13, 22]: 0
- Plant response rating, Rice (0 to 10 scale, 0 is no effect, 10 is complete control) [13, 23]: 0
- Rice plant response rating (0 to 10 scale, 0 is no effect, 10 is complete control) [13, 24]: 0
- Rice plant response rating [13, 25]: 0
- Plant response rating, Rice [13, 26]: 2
- Rice plant response rating [13, 27]: 0
- Plant response rating, Rice [13, 28]: 2
- Plant response rating, S. Flatsedge [14, 21]: 2
- S. Flatsedge plant response rating [14, 22]: 2
- Plant response rating, S. Flatsedge (0 to 10 scale, 0 is no effect, 10 is complete control) [14, 23]: 0
- S. Flatsedge plant response rating (0 to 10 scale, 0 is no effect, 10 is complete control) [14, 24]: 0
- S. Flatsedge plant response rating [14, 25]: 0
- Plant response rating, S. Flatsedge [14, 26]: 8
- S. Flatsedge plant response rating [14, 27]: 0
- Plant response rating, S. Flatsedge [14, 28]: 8
- Plant response rating, Ducksalad [15, 21]: 6
- Ducksalad plant response rating [15, 22]: 3
- Plant response rating, Ducksalad (0 to 10 scale, 0 is no effect, 10 is complete control) [15, 23]: 0
- Ducksalad plant response rating (0 to 10 scale, 0 is no effect, 10 is complete control) [15, 24]: 0
- Ducksalad plant response rating [15, 25]: 0
- Plant response rating, Ducksalad [15, 26]: 6
- Ducksalad plant response rating [15, 27]: 0
- Plant response rating, Ducksalad [15, 28]: 6
- Plant response rating, Barnyardgrass [16, 21]: 0
- Barnyardgrass plant response rating [16, 22]: 0
- Plant response rating, Barnyardgrass (0 to 10 scale, 0 is no effect, 10 is complete control) [16, 23]: 0
- Barnyardgrass plant response rating (0 to 10 scale, 0 is no effect, 10 is complete control) [16, 24]: 0
- Barnyardgrass plant response rating [16, 25]: 0
- Plant response rating, Barnyardgrass [16, 26]: 6
- Barnyardgrass plant response rating [16, 27]: 0
- Plant response rating, Barnyardgrass [16, 28]: 4
